Experimental data as given in ChEMBL document CHEMBL5046289, “Targeting the S2 Subsite Enables the Structure-Based Discovery of Novel Highly Selective Factor XIa Inhibitors” (J Med Chem, 2022).

How the values were obtained:
Coagulation factor XI [1] = biological target: T1, Coagulation factor XI (Homo sapiens, UniProt P03951); conditions: dose 50.0 nM, time 1.0 hrs
Coagulation factor XI [2] = biological target: T1, Coagulation factor XI; assay: Inhibition of coagulation factor XIa (unknown origin) assessed as chromogenic substrate hydrolysis using CS-21(66) as substrate incubated for 1 hr by spectrophotometer based microplate reader method
Plasma kallikrein = Plasma kallikrein (Homo sapiens, UniProt P03952); assay: Inhibition of plasma kallikrein (unknown origin) assessed as chromogenic substrate hydrolysis using CS-31(02) as substrate incubated for 1 hr by spectrophotometer based microplate reader method
Homo sapiens = organism: Homo sapiens; assay: Selectivity index, ratio of IC50 for plasma kallikrein (unknown origin) to IC50 for coagulation factor XIa (unknown origin)
[3] = Toxicity in C57BL/6J mouse assessed as bleeding risk at 60 to 100 mg/kg, iv measured after 15 mins by tail transection assay; type: organism-based; conditions: in vivo, 0.25 h, dose 60-100 mg/kg
[4] = Toxicity in C57BL/6J mouse assessed as bleeding risk at 35 mg/kg, iv measured after 15 mins by tail transection assay; type: organism-based; conditions: in vivo, 0.25 h
[5] = Toxicity in C57BL/6J mouse assessed as bleeding risk at 20 mg/kg, iv measured after 15 mins by tail transection assay; type: organism-based; conditions: in vivo, 0.25 h

T1 sequence (P03951 19-387 limits assumed): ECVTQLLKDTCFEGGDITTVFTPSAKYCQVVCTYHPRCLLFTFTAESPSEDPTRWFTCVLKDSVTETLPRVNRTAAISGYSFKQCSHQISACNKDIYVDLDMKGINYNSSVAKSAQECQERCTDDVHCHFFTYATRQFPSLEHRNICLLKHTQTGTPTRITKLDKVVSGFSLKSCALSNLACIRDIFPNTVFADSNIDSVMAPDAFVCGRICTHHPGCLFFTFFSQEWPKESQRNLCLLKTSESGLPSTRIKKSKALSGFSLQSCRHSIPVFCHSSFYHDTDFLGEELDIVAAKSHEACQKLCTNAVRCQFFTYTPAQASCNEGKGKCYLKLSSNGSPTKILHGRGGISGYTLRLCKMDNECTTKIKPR
T1 sequence (P03951 388-625 limits assumed): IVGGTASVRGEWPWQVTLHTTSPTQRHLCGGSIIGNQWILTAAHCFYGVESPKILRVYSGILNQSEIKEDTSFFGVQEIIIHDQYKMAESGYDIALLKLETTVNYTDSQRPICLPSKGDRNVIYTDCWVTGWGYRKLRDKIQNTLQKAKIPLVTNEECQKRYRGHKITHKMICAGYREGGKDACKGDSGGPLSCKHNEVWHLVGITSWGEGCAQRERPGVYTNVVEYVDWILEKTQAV
Chain of Plasma kallikrein (P03952 20-390 limits assumed): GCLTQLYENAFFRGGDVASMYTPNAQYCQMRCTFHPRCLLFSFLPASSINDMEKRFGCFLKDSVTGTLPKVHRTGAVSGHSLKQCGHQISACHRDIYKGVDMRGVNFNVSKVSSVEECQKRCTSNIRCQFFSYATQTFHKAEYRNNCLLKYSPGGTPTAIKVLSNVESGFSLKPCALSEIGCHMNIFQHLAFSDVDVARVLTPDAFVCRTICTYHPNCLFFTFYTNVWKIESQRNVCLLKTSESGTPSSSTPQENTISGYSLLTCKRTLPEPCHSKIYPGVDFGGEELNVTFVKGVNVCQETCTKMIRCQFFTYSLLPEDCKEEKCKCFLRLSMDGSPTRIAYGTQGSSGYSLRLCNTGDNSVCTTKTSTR
Chain of Plasma kallikrein (P03952 391-638 limits assumed): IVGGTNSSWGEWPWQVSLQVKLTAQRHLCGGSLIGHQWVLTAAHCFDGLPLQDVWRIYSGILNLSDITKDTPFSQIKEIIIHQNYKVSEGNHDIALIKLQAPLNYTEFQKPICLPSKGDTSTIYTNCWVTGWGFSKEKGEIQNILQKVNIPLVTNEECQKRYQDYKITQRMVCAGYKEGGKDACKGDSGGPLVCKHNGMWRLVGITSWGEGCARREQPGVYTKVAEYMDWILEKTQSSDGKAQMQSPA

Row | Structure (SMILES) | inhibition (Coagulation factor XI [1]) [%] | IC50 (Coagulation factor XI [2]) [nM] | IC50 (Plasma kallikrein) [nM] | further results
1 | Cc1ccc(CN2CCN(C(=O)C[C@H](NC(=O)/C=C/c3cc(Cl)ccc3-n3cnnn3)C(=O)Nc3ccc(C(=O)O)cc3)CC2)cc1 | 43.5 | 26.5 | 1200 | Ratio IC50 (Homo sapiens): 45
2 | O=C(CN(Cc1ccc(F)cc1)C(=O)/C=C/c1cc(Cl)ccc1-n1cnnn1)Nc1ccc(C(=O)O)cc1 | 7.2 |  |  | 
3 | O=C(/C=C/c1cc(Cl)ccc1-n1cnnn1)N[C@@H](CCC(=O)N1CCN(Cc2cccc(Cl)c2)CC1)C(=O)Nc1ccc(C(=O)O)cc1 | 3.8 |  |  | 
4 | Cc1ccc(CN2CCN(C(=O)CC[C@H](NC(=O)/C=C/c3cc(Cl)ccc3-n3cnnn3)C(=O)Nc3ccc(C(=O)O)cc3)CC2)cc1 | 19.4 |  |  | 
5 | O=C(/C=C/c1cc(Cl)ccc1-n1cnnn1)N[C@@H](CC(=O)N1CCN(Cc2ccccc2)CC1)C(=O)Nc1ccc(C(=O)O)cc1 | 53.3 | 30.2 | 1060 | Ratio IC50 (Homo sapiens): 35
6 | COc1ccc(CN(CC(=O)Nc2ccc(C(=O)O)cc2)C(=O)/C=C/c2cccc(Cl)c2)cc1 | < 5 |  |  | 
7 | O=C(CN(Cc1ccccc1)C(=O)/C=C/c1cc(Cl)ccc1-n1cnnn1)Nc1ccc(C(=O)O)cc1 | 15.3 |  |  | 
8 | O=C(/C=C/c1cc(Cl)ccc1-n1cnnn1)NCC(=O)Nc1ccc(C(=O)O)cc1 | < 5 |  |  | 
9 | O=C(/C=C/c1cc(Cl)ccc1-n1cnnn1)N[C@@H](CC(=O)N1CCN(CCO)CC1)C(=O)Nc1ccc(C(=O)O)cc1 | 60.2 | 11.5 | 3400 | Ratio IC50 (Homo sapiens): 295
10 | COc1ccc(CN(CC(=O)Nc2ccc(C(=O)O)cc2)C(=O)/C=C/c2cc(Cl)ccc2-n2cnnn2)cc1 | 8.9 |  |  | 
11 | O=C(O)C[C@H](NC(=O)/C=C/c1cc(Cl)ccc1-n1cnnn1)C(=O)Nc1ccc(C(=O)O)cc1 | 2.1 |  |  | 
12 | Cc1ccc(CN(CC(=O)Nc2ccc(C(=O)O)cc2)C(=O)/C=C/c2cc(Cl)ccc2-n2cnnn2)cc1 | < 5 |  |  | 
13 | O=C(CN(Cc1ccccc1)C(=O)/C=C/c1cccc(Cl)c1)Nc1ccc(C(=O)O)cc1 | 7.9 |  |  | 
14 | CCc1ccc(CN(CC(=O)Nc2ccc(C(=O)O)cc2)C(=O)/C=C/c2cc(Cl)ccc2-n2cnnn2)cc1 | 3.6 |  |  | 
15 | CCCCN1CCN(C(=O)C[C@H](NC(=O)/C=C/c2cc(Cl)ccc2-n2cnnn2)C(=O)Nc2ccc(C(=O)O)cc2)CC1 | 51.5 | 7.7 | 510 | 
16 | O=C(/C=C/c1cc(Cl)ccc1-n1cnnn1)N[C@@H](Cc1ccccc1)C(=O)Nc1ccc(C(=O)O)cc1 |  |  |  | Activity [3]: Toxic; Activity [4]: Non-Toxic; Activity [5]: Non-Toxic

Second part, led by results:

Row | inhibition (Coagulation factor XI [1]) [%] | IC50 (Coagulation factor XI [2]) [nM] | IC50 (Plasma kallikrein) [nM] | Structure (SMILES) | further results
17 | 7.5 |  |  | CN(C)C1CCN(C(=O)CC[C@H](NC(=O)/C=C/c2cc(Cl)ccc2-n2cnnn2)C(=O)Nc2ccc(C(=O)O)cc2)CC1 | 
18 | 15.9 |  |  | O=C(/C=C/c1cc(Cl)ccc1-n1cnnn1)N[C@@H](CC(=O)N1CCCCC1)C(=O)Nc1ccc(C(=O)O)cc1 | 
19 | 20.9 |  |  | O=C(/C=C/c1cc(Cl)ccc1-n1cnnn1)N[C@@H](CCC(=O)N1CCC(O)CC1)C(=O)Nc1ccc(C(=O)O)cc1 | 
20 | 16.1 |  |  | O=C(/C=C/c1cc(Cl)ccc1-n1cnnn1)N[C@@H](CCC(=O)N1CCCCC1)C(=O)Nc1ccc(C(=O)O)cc1 | 
21 | 20.5 | 737 |  | CN1CCN(C(=O)CC[C@H](NC(=O)/C=C/c2cc(Cl)ccc2-n2cnnn2)C(=O)Nc2ccc(C(=O)O)cc2)CC1 | 
22 | 44 | 31.2 | 490 | CC(C)N1CCN(C(=O)C[C@H](NC(=O)/C=C/c2cc(Cl)ccc2-n2cnnn2)C(=O)Nc2ccc(C(=O)O)cc2)CC1 | Ratio IC50 (Homo sapiens): 16
23 | 65.7 | 7.8 | 600 | O=C(/C=C/c1cc(Cl)ccc1-n1cnnn1)N[C@@H](CC(=O)N1CCN(CC2CC2)CC1)C(=O)Nc1ccc(C(=O)O)cc1 | Ratio IC50 (Homo sapiens): 77
24 | 3.6 |  |  | CC1CCN(C(=O)C[C@H](NC(=O)/C=C/c2cc(Cl)ccc2-n2cnnn2)C(=O)Nc2ccc(C(=O)O)cc2)CC1 | 
25 | 45.5 | 25.5 | 2700 | CCN1CCN(C(=O)C[C@H](NC(=O)/C=C/c2cc(Cl)ccc2-n2cnnn2)C(=O)Nc2ccc(C(=O)O)cc2)CC1 | Ratio IC50 (Homo sapiens): 106
26 | 12.3 |  |  | O=C(/C=C/c1cc(Cl)ccc1-n1cnnn1)N[C@@H](CC(=O)N1CCC(O)CC1)C(=O)Nc1ccc(C(=O)O)cc1 | 
27 | 34.7 | 67.1 | 1400 | O=C(/C=C/c1cc(Cl)ccc1-n1cnnn1)N[C@@H](CC(=O)N1CCCN(CC2CC2)CC1)C(=O)Nc1ccc(C(=O)O)cc1 | Ratio IC50 (Homo sapiens): 21
28 | 17.2 |  |  | CN1CCN(C(=O)C[C@H](NC(=O)/C=C/c2cc(Cl)ccc2-n2cnnn2)C(=O)Nc2ccc(C(=O)O)cc2)CC1 | 
29 | 3.1 |  |  | CC1CCN(C(=O)CC[C@H](NC(=O)/C=C/c2cc(Cl)ccc2-n2cnnn2)C(=O)Nc2ccc(C(=O)O)cc2)CC1 | 
30 | 39.3 |  | 2700 | CCCCN1CCN(C(=O)CC[C@H](NC(=O)/C=C/c2cc(Cl)ccc2-n2cnnn2)C(=O)Nc2ccc(C(=O)O)cc2)CC1 | Ratio IC50 (Homo sapiens): 30
31 | 17.2 | 89.4 |  | CCN1CCN(C(=O)CC[C@H](NC(=O)/C=C/c2cc(Cl)ccc2-n2cnnn2)C(=O)Nc2ccc(C(=O)O)cc2)CC1 | 
32 | 21.9 | 132 | 6700 | O=C(/C=C/c1cc(Cl)ccc1-n1cnnn1)N[C@@H](CCC(=O)N1CCSCC1)C(=O)Nc1ccc(C(=O)O)cc1 | Ratio IC50 (Homo sapiens): 50
33 | 23.2 | 76.5 | 17300 | CC(=O)N1CCN(C(=O)C[C@H](NC(=O)/C=C/c2cc(Cl)ccc2-n2cnnn2)C(=O)Nc2ccc(C(=O)O)cc2)CC1 | Ratio IC50 (Homo sapiens): 226
34 | 2.6 |  |  | O=C(/C=C/c1cc(Cl)ccc1-n1cnnn1)N[C@@H](CCC(=O)N1CCS(=O)(=O)CC1)C(=O)Nc1ccc(C(=O)O)cc1 | 
35 | 6.6 |  |  | O=C(O)CC[C@H](NC(=O)/C=C/c1cc(Cl)ccc1-n1cnnn1)C(=O)Nc1ccc(C(=O)O)cc1 | 
36 | 30.1 |  |  | CN1CCCN(C(=O)CC[C@H](NC(=O)/C=C/c2cc(Cl)ccc2-n2cnnn2)C(=O)Nc2ccc(C(=O)O)cc2)CC1 | 
37 | 41.7 |  | 3100 | O=C(/C=C/c1cc(Cl)ccc1-n1cnnn1)N[C@@H](CCC(=O)N1CCN(CC2CC2)CC1)C(=O)Nc1ccc(C(=O)O)cc1 | Ratio IC50 (Homo sapiens): 42
38 | 20.9 | 73.5 |  | CC(C)N1CCN(C(=O)CC[C@H](NC(=O)/C=C/c2cc(Cl)ccc2-n2cnnn2)C(=O)Nc2ccc(C(=O)O)cc2)CC1 | 
